One data set has as its system lambsquarters. Put plainly: Test Example 4: herbicidal effect by soil treatment (Table 19, symbol O). The data set is classed as in vivo, lambsquarters (Chenopodium album). Particulars: amount of applied herbicide 320 g/ha. The method in brief: (§1)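 Emulsion of test compound, water-diluted to predetermined amount, sprayed on soil after sowing (seed depth ~1.5 cm, sterilized diluvial soil). Greenhouse, 25–30° C. Effect graded at three weeks post-spray.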

A further data set has as its system southern crabgrass. Put plainly: Test Example 4: herbicidal effect by soil treatment (Table 19, symbol F). The data set is classed as in vivo, southern crabgrass (Digitaria ciliaris). The conditions noted are these: amount of applied herbicide 320 g/ha. The method in brief: as §1
Another data set has as its system Italian ryegrass. Put plainly: Test Example 4: herbicidal effect by soil treatment (Table 19, symbol K). The data set is classed as in vivo, Italian ryegrass (Lolium multiflorum). The conditions noted are these: amount of applied herbicide 320 g/ha. The method in brief: as §1
In a further data set the test system is directly sowed rice. As to the kind of experiment: Test Example 3: effect on crop by foliage application, Wagner pot (Table 18, symbol b). The data set is classed as in vivo. Particulars: amount of applied herbicide 320 g/ha. On the procedure: [Test Example 3] Herbicidal Effect Test by Foliage Application After alluvial soil was placed into 1/10000 are of Wagner pot, water was poured and mixed to form a submerged condition having a water depth of 0.1 cm to 0.5 cm. Seeds of barnyard grass, Chinese sprangletop, rice flat sedge, and rice were sowed and the pot was placed in a greenhouse at 25° C. to 30° C. for growth of the plants. After 14-day growth of the plants, the emulsion agent of the compound of the present invention prepared according to Formulation Example 2 was diluted with water so as to achieve a predetermined herbicide amount, and the diluted emulsion agent was uniformly applied to a foliage part with a small-sized spray. Three weeks after the herbicide application, the effect of the herbicide on each plant was evaluated according to the criteria of Test Example 1.

The test system of another data set is velvetleaf. As to the kind of experiment: Test Example 4: herbicidal effect by soil treatment (Table 19, symbol M). The data set is classed as in vivo, velvetleaf (Abutilon theophrasti). The conditions noted are these: amount of applied herbicide 320 g/ha. In a few lines: as §1
A further data set has as its system wild oat. As to the kind of experiment: Test Example 4: herbicidal effect by soil treatment (Table 19, symbol I). Particulars: amount of applied herbicide 320 g/ha. The data set is classed as in vivo, wild oat (Avena fatua). The method in brief: as §1
The subject of the next data set is windgrass. Put plainly: Test Example 4: herbicidal effect by soil treatment (Table 19, symbol L). The data set is classed as in vivo, windgrass (Apera spica-venti). Particulars: amount of applied herbicide 320 g/ha. The method in brief: as §1
In another data set the test system is soybean. As to the kind of experiment: Test Example 4: effect on crop by soil treatment (Table 19, symbol d). The data set is classed as in vivo. Particulars: amount of applied herbicide 320 g/ha. From the text:
(§2) [Test Example 4] Herbicidal Effect Test by Soil Treatment
(§3) Sterilized diluvial soil was placed in a plastic box having a length of 21 cm, a width of 13 cm, and a depth of 7 cm. The seeds of each of southern crabgrass, green foxtail, barnyard grass, wild oat, blackgrass, Italian ryegrass, windgrass, velvetleaf, redroot pigweed, lambsquarters, chickweed, false cleavers, persian speedwell, corn, soybean, rice, wheat, beet, and rapeseed were sowed in a spot-like manner and covered with the soil having a thickness of about 1.5 cm. Subsequently, the emulsion agent of the compound of the present invention prepared according to Formulation Example 2 was diluted with water so as to achieve a predetermined herbicide amount, and the diluted emulsion agent was uniformly applied to the surface of the soil with a small-sized spray. The plastic box was placed in a greenhouse at 25° C. to 30° C. for growth of the plants. Three weeks after the herbicide application, the effect of the herbicide on each plant was evaluated according to the criteria of Test Example 1.

The next data set has as its system redroot pigweed. As to the kind of experiment: Test Example 4: herbicidal effect by soil treatment (Table 19, symbol N). Particulars: amount of applied herbicide 320 g/ha. The data set is classed as in vivo, redroot pigweed (Amaranthus retroflexus). The method in brief: as §1
For a further data set, the system named is beet. Put plainly: Test Example 4: effect on crop by soil treatment (Table 19, symbol f). The data set is classed as in vivo. The conditions noted are these: amount of applied herbicide 320 g/ha.
Description: as §2, §3

The test system of data set [1] is barnyard grass. As to the kind of experiment: Test Example 3: herbicidal effect by foliage application, Wagner pot (Table 18, symbol H). The data set is classed as in vivo, barnyard grass (Echinochloa crus-galli). Particulars: amount of applied herbicide 320 g/ha. The method in brief:
(§4)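 Plants were sown in alluvial soil held under 0.1–0.5 cm standing water and grown 14 days in a greenhouse at 25–30 °C. An emulsifiable formulation, water-diluted to the set dose, was then sprayed onto the foliage, and effects were scored three weeks later using previously defined criteria.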

Data set [2] relates to barnyard grass. Put plainly: Test Example 4: herbicidal effect by soil treatment (Table 19, symbol H). The data set is classed as in vivo, barnyard grass (Echinochloa crus-galli). The conditions noted are these: amount of applied herbicide 320 g/ha. The method in brief: as §1
The test system of another data set is wheat. Put plainly: Test Example 4: effect on crop by soil treatment (Table 19, symbol e). The data set is classed as in vivo. Particulars: amount of applied herbicide 320 g/ha.
Description: as §2, §3

In another data set the test system is Chinese sprangletop. As to the kind of experiment: Test Example 3: herbicidal effect by foliage application, Wagner pot (Table 18, symbol D). The data set is classed as in vivo, chinese sprangletop (Leptochloa chinensis). The conditions noted are these: amount of applied herbicide 320 g/ha. In a few lines:
as §4

A further data set concerns green foxtail. Put plainly: Test Example 4: herbicidal effect by soil treatment (Table 19, symbol G). The data set is classed as in vivo, green foxtail (Setaria viridis). The conditions noted are these: amount of applied herbicide 320 g/ha. In a few lines:
as §1

The test system of a further data set is rice flat sedge. As to the kind of experiment: Test Example 3: herbicidal effect by foliage application, Wagner pot (Table 18, symbol E). The data set is classed as in vivo, rice flat sedge (Cyperus iria). The conditions noted are these: amount of applied herbicide 320 g/ha. The method in brief:
as §4

The next data set relates to rapeseed. As to the kind of experiment: Test Example 4: effect on crop by soil treatment (Table 19, symbol g). The conditions noted are these: amount of applied herbicide 320 g/ha. The data set is classed as in vivo.
Description: as §2, §3

The test system of the next data set is corn. Put plainly: Test Example 4: effect on crop by soil treatment (Table 19, symbol c). The data set is classed as in vivo. Particulars: amount of applied herbicide 320 g/ha.
Description: as §2, §3

For the next data set, the system named is blackgrass. Put plainly: Test Example 4: herbicidal effect by soil treatment (Table 19, symbol J). The data set is classed as in vivo, blackgrass (Alopecurus myosuroides). The conditions noted are these: amount of applied herbicide 320 g/ha. In a few lines: as §1

The record followed here is patent US20230085307A1, “PYRIDAZINONE COMPOUND AND HERBICIDE” (NISSAN CHEMICAL CORPORATION, priority 2019, published 2023).

Broadly, the melting point is the temperature of the solid-liquid transition. The compound `COc1ccccc1-c1sc2ccc(Cl)cc2c1-c1c(OC)c(C)nn(C)c1=O` [Compound No. 2-102, 4-(5-chloro-2-(2-methoxyphenyl)benzo[b]thiophen-3-yl)-5-methoxy-2,6-dimethylpyridazin-3(2H)-one] showed a melting point of 174 to 175 °C.

Consider `COc1ccccc1-c1sc2ccc(SC(F)(F)F)cc2c1-c1c(O)c(C)nn(C)c1=O` [Compound No. 2-378, 5-hydroxy-4-(2-(2-methoxyphenyl)-5-((trifluoromethyl)thio)benzo[b]thiophen-3-yl)-2,6-di methylpyridazin-3(2H)-one], for which the melting point fell in the range of 183 to 186 °C. Moreover, the “herbicidal effect, O: lambsquarters” value in the data set on lambsquarters was 2 (Herbicidal rate of 20% or more and less than 40%). In addition, the “herbicidal effect, F: southern crabgrass” value in the data set with southern crabgrass was 0 (Herbicidal rate of 5% or less (almost no effect)). The “herbicidal effect, K: Italian ryegrass” value in the data set on Italian ryegrass is 0 (Herbicidal rate of 5% or less (almost no effect)). Besides, the “effect on crop b: directly sowed rice” value in the data set on directly sowed rice is on record as 0 (Herbicidal rate of 5% or less (almost no effect)). The “herbicidal effect, M: velvetleaf” value with velvetleaf is 0 (Herbicidal rate of 5% or less (almost no effect)). Moreover, the “herbicidal effect, I: wild oat” value in the data set on wild oat was 0 (Herbicidal rate of 5% or less (almost no effect)). Further, in the data set on windgrass, the “herbicidal effect, L: windgrass” value is on record as 0 (Herbicidal rate of 5% or less (almost no effect)). Further, the “effect on crop, d: soybean” value in the data set on soybean is recorded as 0 (Herbicidal rate of 5% or less (almost no effect)). In addition, in the data set on redroot pigweed, the “herbicidal effect, N: redroot pigweed” value was 4 (Herbicidal rate of 70% or more and less than 90%). In addition, in the data set on beet, the “effect on crop, f: beet” value is 0 (Herbicidal rate of 5% or less (almost no effect)). The “herbicidal effect on H: barnyard grass” value with barnyard grass [1] is listed as 5 (Herbicidal rate of 90% or more (almost completely withered)). In addition, the “herbicidal effect, H: barnyard grass” value with barnyard grass [2] was 0 (Herbicidal rate of 5% or less (almost no effect)). Also, the “effect on crop, e: wheat” value with wheat is 0 (Herbicidal rate of 5% or less (almost no effect)). The “herbicidal effect on D: Chinese sprangletop” value with Chinese sprangletop is listed as 5 (Herbicidal rate of 90% or more (almost completely withered)). For the same compound, the “herbicidal effect, G: green foxtail” value in the data set with green foxtail is on record as 0 (Herbicidal rate of 5% or less (almost no effect)). Moreover, in the data set on rice flat sedge, the “herbicidal effect on E: rice flat sedge” value was 3 (Herbicidal rate of 40% or more and less than 70%). Also, the “effect on crop, g: rapeseed” value in the data set with rapeseed is reported as 0 (Herbicidal rate of 5% or less (almost no effect)). Besides, the “effect on crop, c: corn” value in the data set with corn was 0 (Herbicidal rate of 5% or less (almost no effect)). For the same compound, in the data set with blackgrass, the “herbicidal effect, J: blackgrass” value was 0 (Herbicidal rate of 5% or less (almost no effect)).

Compound `COc1ccccc1-c1sc2ccc(SC(F)(F)F)cc2c1-c1c(OC)c(C)nn(C)c1=O` [Compound No. 2-379, 5-methoxy-4-(2-(2-methoxyphenyl)-5-((trifluoromethyl)thio)benzo[b]thiophen-3-yl)-2,6-di methylpyridazin-3(2H)-one] had a melting point of 152 to 155 °C.
